Converted amounts (≈) assume the structure as drawn.
Target: T1, intestinal α-glucosidase
T1 construct: gene MAL12; human 5NN8 only used for docking
Assay: sucrose hydrolysis, GOD-POD glucose read-out at […] nm
Type: biochemical
Details: sucrose as substrate; phosphate buffer pH 7.5; 37 °C

C[C@H]1O[C@H](O[C@H]2[C@H](O)[C@@H](O)[C@@H](O[C@H]3[C@H](O)[C@@H](O)C(O)O[C@@H]3CO)O[C@@H]2CO)[C@H](O)[C@@H](O)[C@@H]1N[C@H]1C=C(CO)[C@@H](O)[C@H](O)[C@H]1O (stereo partly shown) [acarbose]
IC50: 0.089 ± 0.004 µg/mL (≈ 0.138 µM)

From article PMC11506481, “Influence of Harvesting Stage on Phytochemical Composition, Antioxidant, and Antidiabetic Activity of Immature Ceratonia siliqua L. Pulp from Béni Mellal-Khénifra Region, Morocco: In Silico, In Vitro, and In Vivo Approaches” (Current Issues in Molecular Biology, 2024)
